According to PubChem BioAssay (NCI):
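All cell lines were grown in 96-well plates and treated with compound for 48 hours. GI50: concentration for 50% inhibition of growth. Definition used: TGI = concentration required for complete inhibition of growth.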

Assays:
Test in all cases: NCI-60 cell line screen, 48 h; in the data active = GI50 below about 0.43 µM; inactive = the rest
[1] = tested on: 786-0 renal
[2] = tested on: A498 renal
[3] = tested on: A549 NSCLC
[4] = tested on: ACHN renal
[5] = tested on: BT-549 breast
[6] = tested on: CAKI-1 renal
[7] = tested on: CCRF-CEM leukemia
[8] = tested on: COLO 205 colon
[9] = tested on: DU-145 prostate
[10] = tested on: EKVX NSCLC
[11] = tested on: HCC-2998 colon
[12] = tested on: HCT-116 colon
[13] = tested on: HCT-15 colon
[14] = tested on: HL-60(TB) leukemia
[15] = tested on: HOP-62 NSCLC
[16] = tested on: HOP-92 NSCLC
[17] = tested on: HS 578T breast
[18] = tested on: HT29 colon
[19] = tested on: IGROV1 ovarian
[20] = tested on: K-562 leukemia
[21] = tested on: KM12 colon
[22] = tested on: LOX IMVI melanoma
[23] = tested on: M14 melanoma
[24] = tested on: MALME-3M melanoma
[25] = tested on: MCF7 breast
[26] = tested on: MDA-MB-231 breast
[27] = tested on: MDA-MB-435
[28] = tested on: MOLT-4 leukemia
[29] = tested on: NCI-H226 lung
[30] = tested on: NCI-H23 lung
[31] = tested on: NCI-H460 lung
[32] = tested on: NCI-H522 lung
[33] = tested on: NCI/ADR-RES ovarian
[34] = tested on: OVCAR-3 ovarian
[35] = tested on: OVCAR-4 ovarian
[36] = tested on: OVCAR-5 ovarian
[37] = tested on: OVCAR-8 ovarian
[38] = tested on: PC-3 prostate
[39] = tested on: RPMI-8226 leukemia
[40] = tested on: RXF 393 renal
[41] = tested on: SF-268 CNS
[42] = tested on: SF-295 CNS
[43] = tested on: SF-539 CNS
[44] = tested on: SK-MEL-2 melanoma
[45] = tested on: SK-MEL-28 melanoma
[46] = tested on: SK-MEL-5 melanoma
[47] = tested on: SK-OV-3 ovarian
[48] = tested on: SN12C renal
[49] = tested on: SNB-19 CNS
[50] = tested on: SNB-75 CNS
[51] = tested on: SW-620 colon
[52] = tested on: T-47D breast
[53] = tested on: TK-10 renal
[54] = tested on: U251 CNS
[55] = tested on: UACC-257 melanoma
[56] = tested on: UACC-62 melanoma
[57] = tested on: UO-31 renal
[58] = tested on: SR leukemia

NCCCC[C@@H]1NC(=O)[C@H]2CCCN2C(=O)[C@H](Cc2ccccc2)NC(=O)[C@H](Cc2ccccc2)CNC1=O
> 100 µM: TGI [1] | TGI [2] | TGI [3] | TGI [4] | TGI [5] | TGI [6] | TGI [7] | TGI [8] | TGI [9] | TGI [10] | TGI [11] | TGI [12] | TGI [13] | TGI [14] | TGI [15] | TGI [16] | TGI [17] | TGI [18] | TGI [19] | TGI [20] | TGI [21] | TGI [22] | TGI [23] | TGI [24] | TGI [25] | TGI [26] | TGI [27] | TGI [28] | TGI [29] | TGI [30] | TGI [31] | TGI [32] | TGI [33] | TGI [34] | TGI [35] | TGI [36] | TGI [37] | TGI [38] | TGI [39] | TGI [40] | TGI [41] | TGI [42] | TGI [43] | TGI [44] | TGI [45] | TGI [46] | TGI [47] | TGI [48] | TGI [49] | TGI [50] | TGI [51] | TGI [52] | TGI [53] | TGI [54] | TGI [55] | TGI [56] | TGI [57]
inactive: GI50 [1] > 100 µM | GI50 [2] > 100 µM | GI50 [3] > 100 µM | GI50 [4] > 100 µM | GI50 [5] > 100 µM | GI50 [6] > 100 µM | GI50 [7] > 100 µM | GI50 [8] > 100 µM | GI50 [9] > 100 µM | GI50 [10] > 100 µM | GI50 [11] > 100 µM | GI50 [12] > 100 µM | GI50 [13] > 100 µM | GI50 [14] > 100 µM | GI50 [15] > 100 µM | GI50 [16] 44.1 µM | GI50 [17] > 100 µM | GI50 [18] > 100 µM | GI50 [19] > 100 µM | GI50 [20] > 100 µM | GI50 [21] > 100 µM | GI50 [22] > 100 µM | GI50 [23] > 100 µM | GI50 [24] > 100 µM | GI50 [25] > 100 µM | GI50 [26] > 100 µM | GI50 [27] > 100 µM | GI50 [28] > 100 µM | GI50 [29] > 100 µM | GI50 [30] > 100 µM | GI50 [31] > 100 µM | GI50 [32] > 100 µM | GI50 [33] > 100 µM | GI50 [34] > 100 µM | GI50 [35] > 100 µM | GI50 [36] > 100 µM | GI50 [37] > 100 µM | GI50 [38] > 100 µM | GI50 [39] > 100 µM | GI50 [40] > 100 µM | GI50 [41] > 100 µM | GI50 [42] > 100 µM | GI50 [43] > 100 µM | GI50 [44] > 100 µM | GI50 [45] > 100 µM | GI50 [46] > 100 µM | GI50 [47] > 100 µM | GI50 [48] > 100 µM | GI50 [49] > 100 µM | GI50 [50] > 100 µM | GI50 [51] > 100 µM | GI50 [52] > 100 µM | GI50 [53] > 100 µM | GI50 [54] > 100 µM | GI50 [55] > 100 µM | GI50 [56] > 100 µM | GI50 [57] > 100 µM

Cc1cc(SCC(=O)c2ccccc2)nc2ccccc12
> 100 µM: TGI [1] | TGI [2] | TGI [3] | TGI [4] | TGI [5] | TGI [6] | TGI [8] | TGI [9] | TGI [10] | TGI [12] | TGI [13] | TGI [14] | TGI [15] | TGI [16] | TGI [18] | TGI [19] | TGI [20] | TGI [21] | TGI [22] | TGI [23] | TGI [24] | TGI [25] | TGI [26] | TGI [27] | TGI [28] | TGI [29] | TGI [30] | TGI [31] | TGI [32] | TGI [33] | TGI [34] | TGI [35] | TGI [36] | TGI [37] | TGI [38] | TGI [39] | TGI [40] | TGI [41] | TGI [42] | TGI [43] | TGI [44] | TGI [45] | TGI [46] | TGI [48] | TGI [49] | TGI [50] | TGI [58] | TGI [51] | TGI [52] | TGI [53] | TGI [54] | TGI [55] | TGI [56] | TGI [57]
64.8 µM: TGI [17]

CN(C)CCOc1ccc(/C(=C(/CCCCCCCCCC[P+](c2ccccc2)(c2ccccc2)c2ccccc2)c2ccccc2)c2ccccc2)cc1
inactive: GI50 [33] 1.32 µM
0.319 µM: TGI [14]
1.35 µM: TGI [9]
1.4 µM: TGI [10] | TGI [18]
0.184 µM: TGI [38]
1.66 µM: TGI [3]
0.899 µM: TGI [27]
0.774 µM: TGI [2]
> 100 µM: TGI [20]
1.47 µM: TGI [4]
0.172 µM: TGI [39]
1.32 µM: TGI [51]
active: GI50 [2] 0.224 µM | GI50 [3] 0.0772 µM | GI50 [4] 0.382 µM | GI50 [9] 0.258 µM | GI50 [10] 0.274 µM | GI50 [14] 0.0575 µM | GI50 [16] 0.0297 µM | GI50 [17] 0.318 µM | GI50 [18] 0.127 µM | GI50 [20] 0.0389 µM | GI50 [27] 0.223 µM | GI50 [38] 0.0304 µM | GI50 [39] 0.0273 µM | GI50 [44] 0.28 µM | GI50 [45] 0.364 µM | GI50 [51] 0.28 µM
3.78 µM: TGI [33]
1.79 µM: TGI [17] | TGI [45]
0.864 µM: TGI [44]
0.208 µM: TGI [16]
